In patent US8633166B2, “Methicillin-resistant Staphylococcus aureus active metabolites” (priority 2009, dated 2014):

Key:
[1] = test system: Methicillin-resistant Staphylococcus aureus; assay: In vivo MRSA assay, thigh infection in a murine model; design: species or system Mice (CD-1); conditions: for number of MRSA recovered from muscle tissue: 48 hours, neutropenic mice
Experimental: The in vivo antimicrobial activity for the isolated glycosides is represented in FIGS. 2A and 2B. Mice (CD-1) were purchased from Harlan Inc. and acclimatized up to 5 days before use. Food and water were available ad libitum throughout the study. They were rendered neutropenic by two injections of cyclophosphamide (100 mg/kg) given intraperitoneally, one and four days before infection. A volume of 50 uL suspension of Methicillin-resistant Staphylococcus aureus (1.5×10^6 live organisms) was injected intramuscularly (1M) into each of the two rear thighs. Each thigh was considered as an individual data point (total of 4 data points for each treatment). These mice were randomly distributed into the control or treatment groups (n=2/group).
Treatment with the test compound (1) was initiated via the intraperitoneal route 2 hrs after thigh inoculation. Control animals were concurrently administered saline (mock treatment) or vancomycin in the same volume as those receiving compound (1). All animals were sacrificed after 48 hours by CO2 inhalation. Immediately following sacrifice, thigh tissue was collected from the animals, weighed, and homogenized in 5.0 mL of saline. Thigh muscle homogenate was then processed for microbiological assay to determine the number of MRSA cfu per gram of muscle tissue.

[2] = Maximum tolerated dose, preliminary experiment; type: in vivo, Mice (CD-1); conditions: 20 mg/kg IP for two days
Experimental: The number of MRSA isolated from vancomycin treated animals was 2.2×10^7 g of tissue, a reduction of 72% compared to vehicle control. Similarly, the number of MRSA recovered after treatment with compound (I) at 3 mg/kg and 15 mg/kg were 2.6×10^7 and 1.8×10^7 respectively, which correspond to a reduction of 67% and 78% as compared to vehicle control. […] To determine the maximum tolerated dose in the preliminary experiment, a maximum of 20 mg/kg of compound (1) was giving IP for two days.

enterococci = assay: In vitro MIC, for enterococci; type: cell-based; conditions: E. faecalis and E. faecium, vancomycin-susceptible and vancomycin-resistant strains
Experimental: (§1) All test articles were dissolved in DMSO. Stock solutions were prepared at 40-fold the highest concentration in the test plate. The final concentration of DMSO in the test system was 2.5%.
(§2) The medium employed for the MIC assay was Mueller Hinton II Broth (MHB II-Becton Dickinson, #212322, Lot #9044411) for most of the organisms. MHB II was supplemented with 2% lysed horse blood (Cleveland Scientific Lot #22299-1) to accommodate the growth of Streptococcus pneumoniae, Streptococcus pyogenes and Streptococcus agalactiae. The media were prepared at 102.5% the normal weight to offset the dilution created by the addition of 5 μL drug solution to each well of the microdilution panels. […]
(§3) Plates were stacked 3 high, covered with a lid on the top plate, placed in plastic bags, and incubated at 35° C. for approximately 18 hours for most of the isolates. The Streptococcus plates were read after 20 hours of incubation. […] The MIC was read and recorded as the lowest concentration of drug that inhibited visible growth of the organism.

streptococci = assay: In vitro MIC, streptococci; type: cell-based, Streptococcus; conditions: highest concentrations considered for MIC readings
Experimental: as §1, §2, §3

With `C[C@@H]1O[C@@H](Oc2c(-c3ccc(O)cc3)oc3cc(O)cc(O)c3c2=O)[C@H](OC(=O)/C=C/c2ccc(O)cc2)[C@H](OC(=O)/C=C/c2ccc(O)cc2)[C@H]1O` [Compound 1, kaempferol 3-O-α-L-(2″,3″-di-E-p-coumaroyl)rhamnoside] the “reduction compared to vehicle control” value ([1]; 3 mg/kg) was 67%, the “number of MRSA recovered from muscle tissue” value ([1]; 3 mg/kg intraperitoneal) was 2.6×10^7 cfu/g and the “reduction compared to vehicle control” value ([1]; 15 mg/kg) was 78%. The “number of MRSA recovered from muscle tissue” value ([1]; 15 mg/kg intraperitoneal) was 1.8×10^7 cfu/g, the “acute toxicity at maximum dose given” value [2] was “No untoward effect” and the “activity against enterococci” value (enterococci) was “inhibited multiple strains”. The “activity against the streptococci” value (streptococci) was “Neither compound was active”.
